{
  "source": "patent US11473034B2",
  "about": "“Highly stable and alkaline cleaning solutions and soluble surfactant” (EVONIK OPERATIONS GMBH, priority 2018, dated 2022)",
  "experiment": "Foaming properties (automated shake test, foam volume relative to solution and foam volume)",
  "format": "physicochemical",
  "details": "2 wt % in 45% KOH",
  "description": "Determining the Foaming Properties of Surfactants\nFoaming results from surfactants occupying the air/solution interface to stabilize films of solution that encircle air under agitation. Surfactants may produce more or less foam and contribute to higher or lower stability of these foams. This characteristic of a surfactant may be shown by shaking a tube in a controlled, repeatable fashion (generally through the use of automation) and then measuring the volume of foam in the tube relative to the volume of both foam and solution. Numerous examples of variations on this method may be found in scientific literature, such as Amaral, das Neves, J., Oliveira, Â. Z., and Bahia, M. F., “Foamability of Detergent Solutions Prepared with Different Types of Surfactants and Waters”, Journal of Surfactants and Detergents, 11, 275-278 (2008).\nThe foaming properties of solutions of Monosodium Cyclohexylamine Dipropionate (Example 1), Monosodium Butyloxypropylamine Dipropionate (Example 2), and 1.5 Sodium Butyloxypropylaminopropylamine Tripropionate (Example 3), prepared as 2 wt % in 45% KOH, were examined. Samples of each solution were shaken vigorously in an automated apparatus to ensure identical treatment of each sample and the volume of foam relative to the total volume of solution and foam was determined.",
  "data": [
    {"substance": "1.5 Sodium Butyloxypropylaminopropylamine Tripropionate [Example 3]", "values": [
      {"measurement": "Foam Volume (as Percentage of Solution and Foam Volume)", "setting": "1 Minute", "value": "57.5 Percentage of Solution and Foam Volume"},
      {"measurement": "Foam Volume (as Percentage of Solution and Foam Volume)", "setting": "3 Minutes", "value": "53.1 Percentage of Solution and Foam Volume"},
      {"measurement": "Foam Volume (as Percentage of Solution and Foam Volume)", "setting": "Initial", "value": "57.6 Percentage of Solution and Foam Volume"}
    ]}
  ]
}
